Test results: US12630546B2, “RNF4 targeting compounds and uses thereof” (TECHNION RESEARCH & DEVELOPMENT FOUNDATION LIMITED, priority 2021, dated 2026)
Entries after “also recorded” stand apart in the source; their conditions may differ.

Legend:
[1] = molecular target: T1, RNF4 (Homo sapiens, UniProt P78317); test: RNF4 protein level by western blot after R4VP treatment; assay type: cell-based; parameters: RNF4 degradation in the presence of proteasome inhibitor MG132: dose or concentration left out as unconfirmed
T1 construct: endogenous in cells; host or cells: A375 / A375R human melanoma cells
T1 sequence (P78317 1-190): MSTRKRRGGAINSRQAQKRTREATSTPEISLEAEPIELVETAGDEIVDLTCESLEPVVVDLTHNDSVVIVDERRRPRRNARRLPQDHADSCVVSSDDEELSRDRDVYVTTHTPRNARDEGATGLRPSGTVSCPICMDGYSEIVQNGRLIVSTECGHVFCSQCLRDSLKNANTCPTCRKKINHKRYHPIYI
Method: Protein stability was determined in steady state and dynamic CHX chase experiments as described (Trausch-Azar et al. 2015). Proteins resolved over SDS-PAGE, using the indicated antibodies, and visualized using chemiluminescence (Image-Quan LAS4000). Where indicated cells were treated for the indicated times and concentrations with R4VP or related compounds.

[2] = test system: A375R melanoma cells; test: Cell viability (MTT) of Vemurafenib-resistant melanoma cells; assay type: cell-based, human; conditions: six days, in presence of PLX4032
Method: (§1) Cell viability was assessed using MTT (Sigma-Aldrich) and ATP-lite (Perkin Elmer) assays according to the manufacture instructions. In assays evaluating resistance to PLX4032, PLX4032-treated cells were cultured for six days before analysis. Viability was measured using cells were performed in 96-well plates and cells incubated for 24 h at 37° C. Next, cells were incubated in MTT solution (Sigma-Aldrich) and processed according to the manufacturer instructions and analyzed using Stat Fax 2100 ELISA reader.

[3] = test system: U2OS human osteosarcoma cells; test: Cell viability (MTT) of osteosarcoma cells; assay type: cell-based; conditions: concentrations similar to A375R
Method: as §1

[4] = test system: human Myeloma U266 cells; test: Cell viability (MTT) of multiple myeloma cells; assay type: cell-based; conditions: concentrations similar to A375R
Method: as §1

[5] = test system: human A375R melanoma; test: Colony formation of PLX-resistant melanoma cells; assay type: cell-based; conditions: added at cell seeding, colonies visualized 8 d after seeding
[6] = test system: human U2OS sarcoma cells; test: Colony formation of osteosarcoma cells; assay type: cell-based; conditions: added at cell seeding, colonies visualized 9 d after seeding
[7] = test system: mouse melanoma B16F10 cancer cells; test: Cell viability (MTT) of B16F10 melanoma cells; assay type: cell-based; conditions: three days treatment
Method: as §1

[8] = test system: B16F10 murine melanoma cells; test: Colony formation of B16F10 melanoma cells; assay type: cell-based, mouse; conditions: nine days
[9] = test system: A375R melanoma cells; test: Cell death by FACS analysis (sub-G1); assay type: cell-based, human; conditions: 3 h exposure, 20 uM
[10] = test system: human squamous skin cancer cells (SCC1); test: Colony formation of squamous cell carcinoma cells; assay type: cell-based
Method: Colony formation assay: Cells were suspended in DMEM or RPMI medium and seeded at a density of 1000 cells/well. Plates were maintained at 37° C. for six days, fixed overnight with 4% paraformaldehyde (PFA), stained with 0.05% crystal violet.

With `Cc1ncsc1-c1ccc(CNC(=O)[C@H]2C[C@@H](O)CN2C(=O)[C@H](NC(=O)CCC(=O)NCCCCOc2ccc(Oc3ccc(N(Cc4ccccc4)C(=O)CCl)cc3)cc2)C(C)(C)C)cc1` [R4VP, N1-(4-(4-(4-(N-benzyl-2-chloroacetamido)phenoxy)phenoxy)butyl)-N4-((R)-1-((2R,4R)-4-hydroxy-2-((4-(4-methylthiazol-5-yl)benzyl)carbamoyl)pyrrolidin-1-yl)-3,3-dimethyl-1-oxobutan-2-yl)succinamide] the “RNF4 degradation in the presence of proteasome inhibitor MG132” value ([1]; A375R cells, MG132 as printed) was “can be inhibited by the proteasome inhibitor MG132; also recorded: restored to levels similar to control treated cells”, the “RNF4 protein level (exogenous HA-RNF4 or endogenous)” value ([1]; A375R cells, three hours treatment, western blot) was “reduced the level of exogenous or endogenous RNF4 protein; also recorded: induced degradation of RNF4” and the “endogenous RNF4 level, dose dependence” value ([1]; A375 melanoma cells) was “reduces the level of endogenous RNF4 in A375 melanoma cells in a dose dependent manner”. For the same molecule, the “concentration inhibiting growth and proliferation” value ([2]; A375R) was no less than 10 µM, the “effect on growth and proliferation of A375R cells” value [2] was “inhibits A375R proliferation” and the “effect on proliferation of U2OS cells” value [3] was “growth inhibitory effects were also observed; also recorded: inhibits proliferation of U2OS human osteosarcoma cells in a dose dependent manner”. The “effect on proliferation of U266 cells” value [4] was “growth inhibitory effects were also observed; also recorded: inhibits proliferation of human Myeloma U266cells”, the “effect on colony formation of A375R cells” value [5] was “inhibited colony formation of melanoma and osteosarcoma cells in a dose dependent manner; also recorded: inhibits colony formation of human A375R melanoma” and the “effect on colony formation of U2OS cells” value [6] was “inhibited colony formation of melanoma and osteosarcoma cells in a dose dependent manner; also recorded: inhibits colony formation of human U2OS sarcoma cells”. For the same molecule, the “effect on proliferation/viability of B16F10 cells” value [7] was “inhibits proliferation and colony formation”, the “effect on proliferation/viability of B16F10 cells” value ([7]; listed as RNF4-VHL-PROTAC) was “inhibits cell proliferation and colony formation” and the “effect on colony formation of B16F10 cells” value [8] was “inhibits proliferation and colony formation”. The “effect on colony formation of B16F10 cells” value ([8]; listed as RNF4-VHL-PROTAC) was “inhibits cell proliferation and colony formation”, the “cell death, accumulation of cells in sub-G1” value [9] was “extensive cell death” and the “cell death, accumulation of cells in sub-G1” value ([9]; listed as RNF4-VHL-PROTAC) was “results in cell-death”. The “effect on colony formation of SCC1 cells” value ([10]; 1, 3 and 5 μM) was “inhibiting colony formation” and the IC50 ([10]; Homo sapiens, squamous cell carcinoma cell line, printed HCC1) was less than 1000 nM.
